Literature values in patent publication US20140032198A1, “APPLICATION OF MULTIDIMENSIONAL MATRIX FOR DRUG MOLECULAS DESIGN AND THE METHODOLOGIES FOR DRUG MOLECULAR DESIGN” (priority 2011, published 2014).

settings: qualitative comparison within captopril series, historical data

**Q.** With `CCC(=O)O[C@@H](O[P@](=O)(CCCCc1ccccc1)CC(=O)N1C[C@H](C2CCCCC2)C[C@H]1C(=O)O)C(C)C` [Fosinopril] as the molecule, how does the “toxicity and side effects profiles” value read?
**A.** The value was “relatively weaker”.

**Q.** Which “toxicity and side effects profiles” value does the source give for `CCOC(=O)[C@H](CCc1ccccc1)N[C@@H](C)C(=O)N1Cc2ccccc2C[C@H]1C(=O)O` [Quinapril] here?
**A.** The value was “relatively weaker”.

**Q.** Which “toxicity and side effects profiles” value does the source give for Benazepril here?
**A.** Its value is “relatively weaker”.

**Q.** With Lisinopril as the molecule, how does the “toxicity and side effects profiles” value read?
**A.** Its value is “relatively weaker”.

**Q.** With Ramipril as the molecule, how does the “toxicity and side effects profiles” value read?
**A.** The value was “best toxicity and side effects profiles”.
